{
  "source": "paper PMC4875935",
  "about": "(Clinical Pharmacokinetics, 2015)",
  "origin": "cited, not measured here",
  "key": {"[1]": {"system": "C. albicans"}, "[2]": {"system": "invasive candidiasis"}, "[3]": {"test": "not given", "remark": "listed apart in the source"}, "[4]": {"system": "Candida albicans", "conditions": "neutropenic mouse model of disseminated Candida albicans"}},
  "note": "Values joined by “and” are separate entries in the source; they are usually repeats but may differ in a detail not shown here. Identical values can stand only once.",
  "data": [
    {"smiles": "CC[C@H](C)C[C@H](C)CCCCCCCCC(=O)N[C@H]1C[C@@H](O)[C@@H](NCCN)NC(=O)[C@@H]2[C@@H](O)CCN2C(=O)[C@H]([C@H](O)CCN)NC(=O)[C@H]([C@H](O)[C@@H](O)c2ccc(O)cc2)NC(=O)[C@@H]2C[C@@H](O)CN2C(=O)[C@H]([C@@H](C)O)NC1=O", "note": "[caspofungin]", "values": [
      {"measurement": "epidemiological cut-off value", "setting": "[1]", "result": 0.12, "unit": "µg/mL"},
      {"measurement": "mode MIC", "setting": "[1]", "result": 0.03, "unit": "µg/mL"},
      {"measurement": "CL", "setting": "earlier studies amongst other patient groups", "result": "0.40 L/h and 0.46 L/h"},
      {"measurement": "AUC24 typically observed", "setting": "typically observed for caspofungin", "result": 100000, "unit": "ng·h/mL"},
      {"measurement": "tolerability", "setting": "[2]; 150 mg daily, patients with invasive candidiasis", "result": "well-tolerated"},
      {"measurement": "clinical and mycological cure at the end of therapy", "setting": "[2]; reported response rates in the literature", "result": "72–73%"},
      {"measurement": "protein bound", "setting": "[3]", "result": "92–97%"},
      {"measurement": "AUC/MIC ratio associated with a 1-log kill/24 h", "setting": "[4]", "result": 865}
    ]}
  ]
}
